Laboratory results: patent publication US20090105149A1, “Compounds comprising lpa” (ENKAM PHARMACEUTICALS A/S, priority 2003, published 2009)
Marks after values point to notes of the source that are not given here.

Key:
rat pups = experiment: Negative Geotaxis Reflex in rat pups; format: in vivo; settings: PND 6; intranasal 2.6 μg per pup at PND 1, 2, 3
Description: The number of litters of each treatment group was six. The results were analysed using one-way ANOVA (FPND6=5.14; PPND6=0.008). […] FGLcontrol as above.
Sensory Motor Control Development study.

dopaminergic neurons [1] = experiment: Survival of dopaminergic neurons exposed to 6-OHDA; format: cell-based, rat
Description: Dopaminergic neurons (DN) (a and b) from day 15 rat embryos grown at a density of 150,000 cells/cm^2 for six days without or with various concentrations of peptide on 24-well cell culture plates coated with poly-D-lysine were exposed to 100 μM 6-OHDA for two hours. Medium was changed and various concentrations of FGLd were added. The neurons were grown for another 24 hours before the cultures they were fixed and immunostained for tyrosine hydroxylase.
Dopaminergic neurons were prepared from Wistar rat embryos at embryonic day 15 (Charles River, Sulzfeld, Germany or Møllegaard, Denmark). A pregnant rat was sacrificed and the uterus was taken out and kept on ice in Hank's balanced salt solution (HBSS; Gibco, BRL). The ventral part of the mesencephalon was dissected from the embryonic brains, homogenised on ice in Gey's balanced salt solution (GBSS; Gibco, BRL) supplemented with 5 g glucose/l (Sigma-Aldrich) and thereafter trypsinised. The dissociated cells were washed in the presence of DNAse 1 and soybean trypsin inhibitor (Sigma-Aldrich).
For the survival assay isolated neurons were seeded at a density of 150,000 cells/cm^2 in 24-well cell culture plates coated with poly-D-lysine as described above. The neurons were left to differentiate for six days without or with various concentrations of the FGL peptide, after which 6-OHDA was added at a concentration of 100 μM for two hours. A stock solution was prepared by dissolving 6-OHDA to a concentration of 10 mM in 0.1% (w/v) sodium metabisulfite in order to prevent oxidation. After two hours with 6-OHDA, the medium was changed to Neurobasal medium with supplements and peptide, and the cell cultures were further incubated for 24 hours, fixed and immunostained for tyrosine hydroxylase. 98 images for each experimental condition in each individual experiment were automatically recorded as described for the dopaminergic neurite outgrowth assay below.

dopaminergic neurons [2] = experiment: Neurite outgrowth, dopaminergic neurons; format: cell-based, rat; settings: 72 h; for Effect on Neurite Length (Percent Increase vs. Control): DN E14
Description: The cultures were subsequently immunostained for tyrosine hydroxylase. Hippocampal neurons and CGN were plated at a density of 10,000 cells/cm^2 on 8-well permanox chamber slides and incubated for 24 hours in the presence of various concentrations of FGLd. Subsequently the neurons were immunostained for GAP-43. Results from at least five independent experiments for each neuronal culture are shown as percentage ±SEM with the untreated controls set at 100%. *p<0.05, **p<0.01, ***p<0.001 when compared to the controls.
After 72 hours of incubation, the neurons were fixed with 4% (v/v) formaldehyde and immunostained using a primary mouse monoclonal antibody against tyrosine hydroxylase and secondary biotinylated sheep anti-mouse antibodies followed by incubation with peroxidase conjugated streptavidin. 98 images for each experimental condition in each individual experiment were automatically recorded using a computerised microscope workstation described by Walmod et al. (2002) Toxicol Appl Pharmacol. 181:1-15. Briefly, the workstation consisted of an Eclipse TE 300 inverted microscope (Nikon, Tokyo, Japan) equipped with a motorised, movable microscope stage (LUDL Electronic Production Ltd, Hawthorne, N.Y., USA), a 10× objective and a 1100 analogue b/w CCD video camera (DFA, Denmark). A software package Prima developed at the Protein Laboratory (Copenhagen University, Denmark) was used to make a stereologically based determination of neurite length according to Rønn et al., (2000) J Neurosci Methods. 100:25-32).

Erk1/2 = experiment: PACE assay, phosphorylation of Erk1/2 in CGN; format: cell-based, rat
Description: The total number of neurons was estimated using crystal violet staining. Results from at least three independent experiments are expressed as percentage ±SEM with untreated cultures set at 100%. *p<0.05 and **p<0.01 when compared to the controls.
Detection of phosphorylated Erk1/2 and Akt relative to the total number of CGN is carried out according to Versteeg et al. (2000) FEBS Lett. 465:69-73. For the experiments CGN were plated at a density of 290,000 cells/cm^2 in poly-L-lysine coated 96-well microtiter plates. […] 24 hours after plating, Ara-C was added to the cultures as described above. After 72 hours of incubation, half of the medium was replaced with Neurobasal-A medium containing the peptide to be tested. For the Erk1/2 phosphorylation assay, the cultures were further incubated for 0-90 minutes, centrifuged at 70 g for 8 minutes, fixed with 4% (v/v) formaldehyde and immunostained using primary phospho-p42-44 rabbit antibodies and peroxidase-conjugated anti-rabbit secondary antibodies. For the detection of phosphorylated Akt, the cultures were further incubated for 10 or 30 minutes, centrifuged at 70 g for 8 minutes, fixed with 4% (v/v) formaldehyde and immunostained using polyclonal antibodies against Akt phosphorylated at Ser473 and peroxidase-conjugated secondary antibodies. […]

[3] = test system: rats treated with (25-35) β-amyloid fragment; experiment: Light-dark Discriminating Y-maze with positive food reinforcement; format: in vivo, rat
Description: The present study employed a rat model, in which neurotoxicity and cognitive impairment were induced by the (25-35) β-amyloid peptide fragment (see Maurice T., et al. (1996) (Brain Res. 706:181-93) and Delobette S., et al. (1997) Eur J Pharmacol. 319:1-4). Short-term memory deficit induced by the (25-35) β-amyloid peptide fragment in rat is of special importance to study, as it resembles one of the clinical manifestations of Alzheimer's disease. Short-term memory deficit in rats was evaluated using three different behavioural tests: the Social Recognition (Kogan et al, (2000) Hippocampus 10:47-56), Open Field (Cerbone and Sadile, (1994) Neurosci Biobehav Rev. 18:497-518; Vianna et al, (2000) Learn Mem. 7:333-40) and Y-maze (Clayton & Williams, (2000) Neurobiol Learn Mem. 74:135-45) tests. […]
Behaviour of animals was evaluated using the Social Recognition test, the Open Field test or the Light-dark Discriminating γ-maze. On day 28-30 or day 51 after i.c.v. administration of the (25-35) β-amyloid fragment, the animals were sacrificed, and in selected studies, the brain tissue was collected, histological sections were immunostained with A-β specific antibodies and the amyloid-burden was calculated as a percentage of the A-βpositive area. In addition, the number of neurons in selected areas of brain-sections was calculated using a stereological approach.

FGLd: MAP-type dendrimer of FGL; dendrimeric tetramer of the FGL peptide (EVYVVAENQQGKSKA)
Negative Geotaxis Reflex test, significance vs control and FGLcontrol groups (rat pups): statistically significant effects | Neuronal Survival (% of Control) (dopaminergic neurons [1]; 6-OHDA, DA (E14), 1 μg/mL): 143%* % of Control | survival of dopaminergic neurons treated with 6-OHDA, maximal rescue (dopaminergic neurons [1]; at 1 μg/ml, 6-OHDA-treated control = 100%): approximately 135% | Effect on Neurite Length (Percent Increase vs. Control) (dopaminergic neurons [2]; 0.04 μg/mL): 12% | Effect on Neurite Length (Percent Increase vs. Control) (dopaminergic neurons [2]; 0.2 μg/mL): 23% | Effect on Neurite Length (Percent Increase vs. Control) (dopaminergic neurons [2]; 1 μg/mL): 24% | Effect on Neurite Length (Percent Increase vs. Control) (dopaminergic neurons [2]; 5 μg/mL): 13% | maximal average neurite length, dopaminergic neurons (dopaminergic neurons [2]; at 1 μg/ml, untreated control = 100%): 125% | phosphorylation of Erk1/2 (Erk1/2; 5 μg/ml): unable to induce phosphorylation of Erk1/2 | phosphorylation of Erk1/2 (Erk1/2; 10 μg/ml, from 10 to at least 90 minutes, control cultures = 100%): 115-120% | number of errors ([3]; day 25, last day of training, sub-occipital, β-amyloid control 3.8): 1.7 | number of errors ([3]; training days 21-24, vs β-amyloid fragment-treated control): no significant differences
